Results: patent publication US20170172880A1, “Fast Dissolving Peroxymonosulfate Composition” (Colgate-Palmolive Company, priority 2015, published 2017)

Assay: In vitro whitening test on coffee-stained bovine teeth (ΔW*)
Details: Example 6, MPS added to 2% hydrogen peroxide mouthwash
Procedure: The bovine teeth have initial L values of 57-65. The teeth are submerged in deionized water, then removed and soaked for 2 minutes in 20 mL of the test solution. The teeth are then rinsed three times with deionized water. Each such treatment cycle is repeated fourteen times, and after every two cycles values for L*, a* and b* are measured. These figures are used to calculate a whiteness score, W*, which is a measure of overall color change relative to pure white:
ΔW*=W*(treated)−W*(baseline)
The resulting instant whitening mouthwash is compared to a comparative 2% hydrogen peroxide whitening mouthwash composition using the procedure described in Example 5.
The comparative HP mouthwash is compared to the MPS mouthwash and the MPS/HP mouthwash in side-by-side experiments.

O=S(=O)([O-])O[O-].[K+].[K+] [MPS, potassium peroxymonosulfate]
whitening effect when added to a hydrogen peroxide mouthwash: significant and unexpected additive whitening effect
